How the values were obtained:
[1] = tested on: Valproic acid-induced autism disorder in albino Wistar rats; experiment: Morris water maze test in Valproic acid-induced autism disorder; assay type: in vivo; parameters: Escape latency / Retention time: unit not given here; settings: for Escape latency / Retention time: PND 40, VPA 400 mg/kg, oral daily PND 14 to PND 40, mean ± SEM; for Learning and memory activities, Morris water maze (in words): PND 40, compared to Disease control or to Group-3 and Group-4
Procedure: The present study was to evaluate the effect of test substances on Valproic acid induced Autism spectrum disorder in wistar rats. The animals (50 animals) were divided into five groups each group consisting of 10 animals (5 animals per sex). Animals in Group-1 were treated with vehicle (0.5% CMC), Group-2 was treated with Valproic acid (VPA) 400 mg/kg via subcutaneous route, Group-3, Group-4 and Group-5 were treated with test substance Agmatine Sulphate (25.83 mg/kg), Nicotinamide Riboside chloride (6.46 mg/kg) and Agmatine Sulphate+Nicotinamide Riboside chloride (25.83 mg/kg+6.46 mg/kg) respectively, according to the body weight of animals. At the end of the experimental period, blood was collected from each group for biochemical analyses. On postnatal day 40 (PND 40), all the animals were exposed to the Morris water maze test and Open field test for specific time periods to determine the autism-like behaviors of the test substances. […] The experiment was performed in 14-day old male and female off springs. The weight of the rat pups on the first day of the experiment was 20-40 grams. Sodium Valproate at dose of 400 mg/kg was freshly prepared and administered via subcutaneous route to the rat pups on postnatal day 14 (PND 14). All the animals were divided into five groups and each group contained the same amount of male and female offspring (5 males and 5 females, per group). Animals in Group-1 served as Normal control and were treated with 0.5% CMC, Group-2 served as Disease control and were treated with VPA (400 mg/kg) via intraperitoneally (i.p.), whereas Group-3 was treated with Test-1 Agmatine Sulphate (25.83 mg/kg), Group-4 was treated with Test-2 Nicotinamide Riboside chloride (6.46 mg/kg) and Group-5 was treated with Test-1+Test-2 Agmatine Sulphate+Nicotinamide Riboside chloride (25.83 mg/kg+6.46 mg/kg). The assigned test substances were administered once daily from PND 14 to PND 40. In addition, behaviors of experimental animals were determined via Morris water maze and open field test. […] The dose volume administered to each rat was 10 ml/kg/day. Similarly, 0.5% CMC for Normal control and Disease control groups was administered orally at the same dose volume for a minimum of 26 consecutive days. The dose volume was calculated for individual animals on the first day of the treatment and was re-calculated according to the recent body weights recorded during the study. Daily individual dose volumes were recorded in the study records. The animals were exposed to a pool consisting of 4 quadrants (Northeast, Southeast, Southwest, and Northwest) which was filled with tap water (25° C., 40 cm deep) and covered with nontoxic milk. The removable platform was immersed below the water surface of one quadrant. Each animal had to memorize the location of the immersed platform by using specific visual cues placed around the outside of the tank. The time spent by each rat in finding and climbing on the immersed platform was recorded as the escape latency. Twenty-four hours later, the animal was re-exposed to the same condition, except that the immersed platform had been removed. The mean time that each rat spent in the target quadrant in order to search for the missing platform was noted as the retention time and was used as the index of retrieval memory. Both the escape latency and the retention time in a 5-minute exposure time were used as indices of learning and memory. A blind observer always stood at the same position, and care was taken not to disturb the relative location of water maze with respect to other objects in the laboratory. The determination of the spatial memory capacity via this test was done on PND 40.

[2] = tested on: Valproic acid-induced autism disorder in albino Wistar rats; experiment: Overall autism-like behavior in VPA model of autism disorder; assay type: in vivo
Procedure: The present study was to evaluate the effect of test substances on Valproic acid induced Autism spectrum disorder in wistar rats. The animals (50 animals) were divided into five groups each group consisting of 10 animals (5 animals per sex). Animals in Group-1 were treated with vehicle (0.5% CMC), Group-2 was treated with Valproic acid (VPA) 400 mg/kg via subcutaneous route, Group-3, Group-4 and Group-5 were treated with test substance Agmatine Sulphate (25.83 mg/kg), Nicotinamide Riboside chloride (6.46 mg/kg) and Agmatine Sulphate+Nicotinamide Riboside chloride (25.83 mg/kg+6.46 mg/kg) respectively, according to the body weight of animals. At the end of the experimental period, blood was collected from each group for biochemical analyses. On postnatal day 40 (PND 40), all the animals were exposed to the Morris water maze test and Open field test for specific time periods to determine the autism-like behaviors of the test substances. […] The experiment was performed in 14-day old male and female off springs. The weight of the rat pups on the first day of the experiment was 20-40 grams. Sodium Valproate at dose of 400 mg/kg was freshly prepared and administered via subcutaneous route to the rat pups on postnatal day 14 (PND 14). […] In addition, behaviors of experimental animals were determined via Morris water maze and open field test. […]

Interleukin - 6 = experiment: Interleukin-6 level in global ischemia reperfusion induced brain injury (cerebral infarction) model; assay type: in vivo, Wistar rats; settings: global ischemia (30 min)/72 h reperfusion, oral daily for 10 days, mean ± SEM, n = 6
[3] = tested on: Major depression disorder in Wistar rats; experiment: Overall behavioral evaluation in major depression disorder study (forced swim and open field tests); assay type: in vivo; settings: oral 7 consecutive days

Structure (SMILES)	Escape latency ([1]; Female)	Retention time ([1]; Female)	Escape latency ([1]; Male)	Retention time ([1]; Male)	Learning and memory activities, Morris water maze (in words) [1]	Autism-like behavior (in words) [2]	Interleukin - 6 Levels (Interleukin - 6)	Effect on major depression disorder (in words) [3]
N=C(N)NCCCCN.O=S(=O)(O)O [Agmatine sulphate]	14.20 ± 0.37	24.80 ± 0.58	14.00 ± 0.71	24.20 ± 0.73	significantly increased learning and memory activities	improved autism-like behavior	91.39 ± 0.92 pg/mL	positive effects on major depression disorder
NC(=O)c1ccc[n+]([C@@H]2O[C@H](CO)[C@@H](O)[C@H]2O)c1.[Cl-] [Nicotinamide Riboside chloride, nicotinamide riboside chloride]	15.20 ± 0.37	26.40 ± 0.68	15.40 ± 0.51	26.20 ± 0.49	significantly increased learning and memory activities	improved autism-like behavior	109.56 ± 0.27 pg/mL	positive effects on major depression disorder
